This is an account of results in US20160102316A1, “STRESS TOLERANT PLANTS” (CONSEJO SUPERIOR DE INVESTIGACIONES CIENTIFICAS(CSIC), priority 2013, published 2016).

For one assay, the system named is HA-PYL8 transcript. Put plainly: HA-PYL8 transcript levels in ABA-treated seeds (semiquantitative RT-PCR). Format: in vivo, Arabidopsis. Particulars: oeHA-PYL8 seeds, ABA treatment for 24 h. On the procedure:
Semiquantitative PCR experiments from seedlings were performed using RNA prepared as afore-mentioned. RNA extraction from seeds was carried out as previously described (Onate-Sanchez and Vicente-Carbajosa, 2008). cDNA from all tissues was synthetized as described above. […] of one-fifth diluted cDNA was used to amplify DDA1-GFP, 3HA-PYL8 and the housekeeping gene ACTIN8 using the following primer:
The PCR conditions were as follows: 1 min at 94° C., 35 cycles of 15 s at 94° C., 1 min at 58-62° C., and 1 min 30 s at 72° C., and finally, 5 min at 72° C. 25

Assay [1] concerns the target T1, 3HA-PYL8 (Arabidopsis thaliana, UniProt Q9FGM1).
T1 construct: expressed in transfected cells; host or cells: stably transformed Arabidopsis thaliana (Col-0) plants, line oe3HA-PYL8: seedlings or imbibed seeds; seed lines in pyl8-1 background, some crossed with oeDDA1-GFP
T1 sequence (Q9FGM1 1-188): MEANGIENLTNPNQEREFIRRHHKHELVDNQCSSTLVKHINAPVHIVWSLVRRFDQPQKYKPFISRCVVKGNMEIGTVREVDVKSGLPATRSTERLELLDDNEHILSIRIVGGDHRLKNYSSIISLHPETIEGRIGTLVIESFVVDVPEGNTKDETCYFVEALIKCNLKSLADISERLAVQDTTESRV
Put plainly: Immunoblot of 3HA-PYL8 levels in imbibed seeds. Particulars: 24 h in MS media with 3 μM ABA. The assay is classed as in vivo. How it is done:
(G) Immunoblot analysis of 3HA-PYL8 levels in seeds corresponding to oe3HA-PYL8/oeDDA1-GFP and control (oe3HA-PYL8) plants. Both lines were in the pyl8-1 background. Prior to protein extraction, imbibed seeds were maintained for 24 h in MS media with or without 3 μM ABA. Anti-HA and anti-RPT5 antibodies were used to detect 3HA-PYL8 and for loading control purposes, respectively.
(§1) For protein extraction from seedlings, proteins were extracted in buffer containing 50 mM Tris-HCl pH 7.4, 150 mM NaCl, 10mM MgCl2, 1 mM PMSF, 0.1%NP-40 and 1× complete protease inhibitor (Roche). After centrifugation at 16,000 g at 4° C., the supernatants were collected. This step was repeated twice. For protein extraction from seeds, seeds were frozen in liquid N2 and then homogenized in buffer containing 7 M urea, 2 M thiourea, 4% 3-[(3-cholamidopropyl)dimethylammonio]-1-propanesulfonate (CHAPS; w/v), 18 mM Tris-HCl pH 7.5, 0,2% Triton X100, 1× complete protease inhibitor (Roche). After 10 min incubation at 4° C. with rotation. DTT was added to protein extracts (14 mM final concentration), prior to 20 min incubation at 4° C. Extracts were clarified by centrifugation as afore-mentioned. Protein concentration in final supernatants was determined using a Bio-Rad Protein Assay kit. […]

In another assay the test system is PYL8 gene expression. Conditions: after 3 h of ABA treatment; cited from earlier work.
Assay [2] has as its target T1, 3HA-PYL8. Put plainly: In vivo protein degradation assay (cycloheximide time course, immunoblot). Particulars: 8-d-old seedlings treated with cycloheximide, 50 μM ABA. How it is done: as §1, with “kit. For in vivo co-immunoprecipitation assays, normalized seedling protein extracts were incubated with 5 μl anti-GFP antibody (Living colors Full length A.V. Polyclonal Antibody, Clontech) for 1 h at 4° C. with rotation. 10 μl of protein A-coupled beads (prewashed twice with 0.1 M Glycine pH 2.7) were added to the samples and incubated for an additional hour at 4° C. with rotation.” for “kit.”

In assay [3] the target is T2, PP2C-ABA-PYL8 ternary complexes (Arabidopsis thaliana, UniProt Q9FGM1).
T2 sequence (Q9FGM1 1-188): T1 sequence (Q9FGM1 1-188)
Conditions: ternary complex of PYL8 with ABA and clade A PP2C; cited from earlier work.

Consider `CC1=CC(=O)CC(C)(C)[C@@]1(O)/C=C/C(C)=C\C(=O)O` [ABA, abscisic acid], for which the HA-PYL8 transcript levels result in the assay on HA-PYL8 transcript is “reduced HA-PYL8 transcript levels”. Moreover, the “3HA-PYL8 accumulation in seeds” value at 3HA-PYL8 [1] is “increased accumulation of 3HA-PYL8”. Moreover, the PYL8 gene expression result with PYL8 gene expression is recorded as “reduces PYL8 gene expression”. Besides, at 3HA-PYL8 [2], the 3HA-PYL8 degradation entry is “blocked 3HA-PYL8 degradation”. In assay [3], the Kd was 20 to 40 nM.
